Assay results as given in ChEMBL document CHEMBL1268992, “Kojyl thioether derivatives having both tyrosinase inhibitory and anti-inflammatory properties” (Bioorg Med Chem Lett, 2010).

What was measured:
Tyrosinase = target: T1, Tyrosinase (Agaricus bisporus, UniProt O42713)
T1 sequence (O42713 whole entry): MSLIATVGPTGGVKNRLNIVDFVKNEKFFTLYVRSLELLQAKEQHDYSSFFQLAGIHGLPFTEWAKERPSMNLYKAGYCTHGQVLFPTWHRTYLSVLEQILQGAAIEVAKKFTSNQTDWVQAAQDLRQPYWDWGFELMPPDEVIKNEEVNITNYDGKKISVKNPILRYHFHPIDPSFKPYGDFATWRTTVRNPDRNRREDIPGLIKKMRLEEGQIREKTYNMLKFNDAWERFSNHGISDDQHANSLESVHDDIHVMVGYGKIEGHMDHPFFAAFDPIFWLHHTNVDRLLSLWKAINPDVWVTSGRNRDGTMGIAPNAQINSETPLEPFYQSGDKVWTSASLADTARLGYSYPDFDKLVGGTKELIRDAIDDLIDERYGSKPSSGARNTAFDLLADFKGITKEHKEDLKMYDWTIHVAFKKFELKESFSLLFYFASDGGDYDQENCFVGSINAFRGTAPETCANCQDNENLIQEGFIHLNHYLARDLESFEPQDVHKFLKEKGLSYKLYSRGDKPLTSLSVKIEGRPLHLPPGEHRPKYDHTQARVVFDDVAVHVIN
Description: Inhibition of mushroom tyrosinase after 20 mins by microplate reader analysis

RAW264.7 [1] = experiment: cells; settings: Mus musculus
Description: Antiinflammatory activity in mouse RAW264.7 cells assessed as inhibition of LPS-induced nitric oxide production treated for 30 mins before LPS challenge measured after 24 hrs by Griess reagent method

RAW264.7 [2] = experiment: cells; settings: Mus musculus, RAW264.7, 24 h
Description: Cytotoxicity against mouse RAW264.7 cells after 24 hrs by MTT assay

| Compound | IC50 (Tyrosinase) [µM] | IC50 (RAW264.7 [1]) [µM] | IC50 (RAW264.7 [2]) [µM] |
| --- | --- | --- | --- |
| CCSCc1cc(=O)c(O)co1 | 2.6 | > 100 | > 100 |
| CCCSCc1cc(=O)c(O)co1 | 1.93 | > 100 | > 100 |
| CCCCSCc1cc(=O)c(O)co1 | 1.48 | > 100 | > 100 |
| CCCCCSCc1cc(=O)c(O)co1 | 0.097 | 62 | > 100 |
| CCCCCCSCc1cc(=O)c(O)co1 | 0.19 | 25.8 | > 100 |
| CCCCCCCSCc1cc(=O)c(O)co1 | 2.65 | > 100 | 98.3 |
| CCCCCCCCSCc1cc(=O)c(O)co1 | 46.2 | > 100 | > 100 |
| O=c1cc(CSC2CCCCC2)occ1O | 0.087 | 56.9 | > 100 |
| CCCCC[S+]([O-])Cc1cc(=O)c(O)co1 (configuration not stated) | 79.9 | > 100 | > 100 |
| CCCCCC[S+]([O-])Cc1cc(=O)c(O)co1 (configuration not stated) | 73.8 | > 100 | > 100 |
| O=c1cc(C[S+]([O-])C2CCCCC2)occ1O (configuration not stated) | 79 | > 100 | > 100 |
| CCCCCS(=O)(=O)Cc1cc(=O)c(O)co1 | 76.6 | > 100 | > 100 |
| CCCCCCS(=O)(=O)Cc1cc(=O)c(O)co1 | 49.1 | > 100 | > 100 |
| O=c1cc(CS(=O)(=O)C2CCCCC2)occ1O | 69 | > 100 | > 100 |
